We go through 2 compounds from PMC8836561, “Poly-Lysine Dendritic Nanocarrier to Target Epidermal Growth Factor Receptor Overexpressed Breast Cancer for Methotrexate Delivery” (Materials, 2022).

Values joined by “and” are separate entries in the source; they are usually repeats but may differ in a detail not shown here. Equal values may be shown once.

In data set [1] the test system is MDA-MB-231 cells. Kind of data set: In vitro binding of rhodamine B-conjugated peptides, MDA-MB-231. The data set is classed as cell-based. The settings on record: MDA-MB-231, 2 h, 37 °C, flow cytometry and confocal imaging. As for the experimental part:
Figure S4. Binding activities of rho B-conjugated peptides after incubating with MDA-MB-231 cells for 2 hours at 37°C. a) Untreated control MDA-MB-231 cell. MDA-MB-231 cells binding with b) E1, c) E2, d) E3, e) E4, and f) E5. g) Binding affinity percentages of rho B- conjugated peptides. […]
Figure S6. Internalization of peptides in MDA -MB-231 cells. MDA-MB-231 (EGFR overexpressed) cells were incubated with E1 to E5 peptides (50 µM) for 2 hours at 37°C. Rho-B alone was given as the control. The cells were nuclear stained […]
(1 picture or pasted object on this page, not shown here)
(Flow cytometry measures light scatter and fluorescence of single cells or particles in a stream.)

The subject of data set [2] is SiHa (EGFR negative) cells. Kind of data set: Receptor binding ability by flow cytometry, SiHa. The settings on record: fluorescein MTX 5 µg/mL or fluorescein MTX-conjugated system 8.6 µg/mL (equivalent MTX), 24 h. The data set is classed as cell-based. The procedure: (§1) Then fluorescein MTX (5 µg/mL) and fluorescein MTX-conjugated systems (8.6 µg/mL; having equivalent MTX concentrations) were added to each well and incubated for 24 h. After incubation, the cells were trypsinized and analyzed by flow cytometry. The cells without MTX or DDS treatment were taken as the control.

Data set [3] deals with MDA-MB-231 cells. Nature of the data set: Cell cycle analysis by flow cytometry (propidium iodide), MDA-MB-231. The settings on record: MDA-MB-231, 24 h incubation, FACS. The data set is classed as cell-based. The procedure:
(§2) The cell cycle analysis was conducted by flow cytometry using the manufacturer’s protocol. Briefly, MDA-MB-231 and SiHa cells (1 × 10^5cells/well) were incubated with MTX and MTX–G–P4LDN–E2 for 24 h, trypsinized, and centrifuged to collect the pellet. The cells were then fixed with pre-cooled 70% ethanol at 4 °C for 45 min. After fixation, the pellet was collected carefully after centrifugation at 850× g for 5 min. It was then washed twice with 1X PBS, and 50 μL RNase (100 μg/mL) was added and incubated for 45 min at 37 °C. Then, the cells were washed with 1X PBS and stained with propidium iodide (100 μL, 50 μg/mL) for 10 min. The cellular DNA was analyzed by flow cytometer, and the percentage of cells in each phase of the cell cycle was analyzed by BD FACS Diva software.

Data set [4] has as its system MDA-MB-231 (EGFR overexpressed) cells. Kind of data set: Functional evaluation by confocal microscopy, MDA-MB-231. It is filed as cell-based. The settings on record: fluorescein MTX 5 µg/mL or conjugated system 8.6 µg/mL, 24 h. As for the experimental part:
(§3) MDA-MB-231 (EGFR overexpressed) and SiHa (EGFR negative) cells were grown on coverslips inside the 6-well plates, and the receptor binding ability of MTX–G–P4LDN–E2 was analyzed by confocal microscopy. Fluorescein methotrexate (5 µg/mL) and fluorescein MTX conjugated system (8.6 µg/mL; having equivalent methotrexate concentrations) were added to the wells and incubated for 24 h. The cells without MTX or DDS treatment were taken as the control. Then, Hoechst 33342 (10 µg/mL) was added and incubated for 15 min. The cells were observed under a confocal laser scanning microscope at suitable magnifications.

For another data set, the system named is MDA-MB-231 tumor. Nature of the data set: Anti-tumor efficacy in MDA-MB-231 tumor-bearing NOD-SCID mice. The settings on record: female NOD-SCID mice, tail vein, 5 times for 20 days. It is filed as in vivo. As for the experimental part: For analyzing the efficacy of the nanocarrier systems, fifteen male and fifteen female NOD-SCID mice were assigned to three groups each (n = 3 in first group and n = 6 in second and third groups). Tumor was implanted by injecting cells subcutaneously in the dorsolateral flank with a concentration of 5 × 10^6 MDA-MB-231 cells to female NOD-SCID mice. When the volume of tumor reached 500–1000 mm^3, the first group of animals, serving as the control group, was given PBS (5 mL/kg body weight). The second group was given free-drug MTX (20 mg/kg) through the tail vein. The third group received MTX–G–P4LDN–E2 (35 mg/kg, equivalent to the MTX concentration) through the tail vein, and the treatment was given to the mice 5 times for 20 days.
The tumor volume and body weight of the animals were measured before each injection. The body weight and tumor volume on the final day (24th day) was also calculated. A vernier caliper was used to measure the tumor, and the tumor volume was calculated using the formula: Tumor volume (mm^3)=(length in mm)×(width in mm)^2/2
The treatment was started when the tumor volume reached 500–1000 mm^3. There were 3 groups (n = 3 for control group and n = 6 for treatment groups). First group received PBS (5 mL/kg body weight) was treated as the control. […] On every injection day, the tumor volume as well as the body weight of the animals were measured.

Data set [5] has as its system SiHa (EGFR negative) cells. Kind of data set: Functional evaluation by confocal microscopy, SiHa. It is filed as cell-based. Conditions: fluorescein MTX 5 µg/mL or conjugated system 8.6 µg/mL, 24 h. As for the experimental part:
as §3

For data set [6], the system named is SiHa cells. Nature of the data set: Cytotoxicity by MTT assay, SiHa. The data set is classed as cell-based. Conditions: SiHa (receptor negative), MTX 5 µg/mL or nanocarrier system at equivalent drug concentration (8.6 µg/mL), 48 h, triplicate. As for the experimental part:
(§4) The cytotoxic efficacy of MTX–G–P4LDN–E2 was analyzed by an MTT assay. The cells were seeded in a 96-well plate at a density of 5000 cells per well. […] After 48 h of incubation, the cells were washed twice with 1X PBS, followed by the addition of MTT reagent (100 μL; 5 mg/mL in PBS) and 100 μL serum-free media to all wells and incubated for 3 h. Then DMSO (100 µL) was added to solubilize the formazan crystals, formed in viable cells. After 20 min, the optical density (OD) was measured at 570 nm using a microplate reader (BioRad). The percentage cell viability was calculated as 100 percentage cytotoxicity, where: % cytotoxicity=O.D of control−O.D of test /O.D of control[…]

In data set [7] the test system is SiHa cells. Nature of the data set: Cell cycle analysis by flow cytometry (propidium iodide), SiHa. It is filed as cell-based. Conditions: 24 h incubation, FACS. As for the experimental part:
as §2

Data set [8] concerns MDA-MB-231 cells. Nature of the data set: Cytotoxicity by MTT assay, MDA-MB-231. Conditions: MDA-MB-231 (receptor positive), MTX 5 µg/mL or nanocarrier system at equivalent drug concentration (8.6 µg/mL), 48 h, triplicate. It is filed as cell-based. As for the experimental part:
as §4

The test system of data set [9] is MDA-MB-231 (EGFR overexpressed) cells. Nature of the data set: Receptor binding ability by flow cytometry, MDA-MB-231. The data set is classed as cell-based. Conditions: fluorescein MTX 5 µg/mL or fluorescein MTX-conjugated system 8.6 µg/mL (equivalent MTX), 24 h. As for the experimental part: as §1

As to “ARSHVGYTGAR [E2, EGFR-specific short peptide …]”, the “Binding efficacy of the short peptides in vitro” value with MDA-MB-231 cells [1] is “highest binding efficacy”.

Regarding `CN(Cc1cnc2nc(N)nc(N)c2n1)c1ccc(C(=O)N[C@@H](CCC(=O)O)C(=O)O)cc1` [MTX, methotrexate], the “Binding ability (% of cells, P2)” value in [2] is 82.4%; in [9], 99.6% and > 99%. In addition, the “Percentage of cells in G0” value is 9% in the data set on MDA-MB-231 cells [3] and 14.4% with SiHa cells [7]. In addition, the “Percentage of cells in G1” value is 52.1% in the data set on MDA-MB-231 cells [3] and 64.3% with SiHa cells [7]. Moreover, the “Percentage of cells in G2-M” value with MDA-MB-231 cells [3] stood at 14.9%; with SiHa cells [7], 10.7%. Also, the “Percentage of cells in S” value in the data set with MDA-MB-231 cells [3] is 19.1%; in the data set on SiHa cells [7], 8.8%. Besides, the results for the “Binding (fluorescence) in confocal images” value in data set [4] and in data set [5] were “bound with the MDA-MB-231 cells similarly” and “only the free drug showed fluorescence”, respectively. Also, the “Average tumor volume at the end of the treatment” value with MDA-MB-231 tumor (MTX 20 mg/kg or MTX–G–P4LDN–E2 35 mg/kg (equivalent MTX), day 25, n = 6, mean ± SD, control 2890 ± 85.440) was determined as 661.8 ± 209.067 mm^3. Also, the “Reduction in tumor volume compared to control” value in the data set with MDA-MB-231 tumor (MTX 20 mg/kg or MTX–G–P4LDN–E2 35 mg/kg, day 25, n = 6) is 77.2%. Besides, the Cytotoxicity in the data set with SiHa cells [6] was 57%; with MDA-MB-231 cells [8], 63%.
